Measurements reported in patent publication US20170066759A1, “AROMATIC 5-MEMBERED HETEROCYCLIC DERIVATIVE HAVING TRPV4-INHIBITING ACTIVITY” (Shionogi & Co., Ltd., priority 2012, published 2017).

Columns and labels:
CYP2C19 = target: T1, CYP2C19 (Homo sapiens, UniProt P33261); assay: Test Example 6: CYP inhibition test, mephenytoin 4′-hydroxylation (CYP2C19); format: in vitro ADME; details: pooled human hepatic microsome, 50 μmol/L S-mephenytoin
T1 construct: enzyme, pooled human hepatic microsome 0.2 mg protein/mL; from tissue; host or cells: pooled human liver microsomes
T1 sequence (P33261 whole entry): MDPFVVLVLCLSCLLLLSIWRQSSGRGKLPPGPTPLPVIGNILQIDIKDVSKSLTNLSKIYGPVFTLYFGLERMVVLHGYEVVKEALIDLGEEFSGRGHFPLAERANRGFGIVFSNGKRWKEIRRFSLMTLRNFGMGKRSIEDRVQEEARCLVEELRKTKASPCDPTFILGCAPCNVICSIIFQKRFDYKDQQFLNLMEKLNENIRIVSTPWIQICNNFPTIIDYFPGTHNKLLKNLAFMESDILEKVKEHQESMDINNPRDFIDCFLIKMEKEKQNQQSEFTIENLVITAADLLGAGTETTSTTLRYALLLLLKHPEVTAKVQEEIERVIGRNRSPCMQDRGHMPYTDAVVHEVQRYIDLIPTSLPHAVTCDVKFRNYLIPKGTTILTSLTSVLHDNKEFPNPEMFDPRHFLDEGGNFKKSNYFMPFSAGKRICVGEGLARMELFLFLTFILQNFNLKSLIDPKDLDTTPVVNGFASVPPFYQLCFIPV
Protocol: (§1) Test Example 6 CYP Inhibition Test […] The reaction conditions were as follows: substrate, 0.5 μmol/L ethoxyresorufin (CYP1A2), 100 μmol/L tolbutamide (CYP2C9), 50 μmol/L S-mephenytoin (CYP2C19), 5 μmol/L dextromethorphan (CYP2D6), 1 μmol/L terfenedine (CYP3A4); reaction time, 15 minutes; reaction temperature, 37° C.; enzyme, pooled human hepatic microsome 0.2 mg protein/mL; concentration of the compound of the present invention, 1, 5, 10, 20 μmol/L (four points). Each five kinds of substrates, human hepatic microsome, and the compound of the present invention in 50 mmol/L Hepes buffer as a reaction solution were added to a 96-well plate at the composition as described above. NADPH, as a cofactor was added to initiate metabolism reactions as markers and, after the incubation at 37° C. for 15 minutes, a methanol/acetonitrile=1/1 (v/v) solution was added to stop the reaction. After the centrifugation at 3000 rpm for 15 minutes, resorufin (CYP1A2 metabolite) in the supernatant was quantified by a fluorescent multilabel counter and toltributamide hydroxide (CYP2[…] metabolite), mephenytoin 4' hydroxide (CYP2C19 metabolite), […], and terfenadine alcohol (CYP3A4 metabolite) were quantified by LC/MS/MS. Addition of only DMSO being a solvent dissolving the compound of the present invention to a reaction system was adopted as a control (100%). Remaining activity (%) was calculated at each concentration of the compound of the present invention added as the solution and IC50 was calculated by reverse presumption by a logistic model using a concentration and an inhibition rate.

CYP3A4 = target: T2, CYP3A4 (Homo sapiens, UniProt P08684); assay: Test Example 6: CYP inhibition test, terfenedine hydroxylation (CYP3A4); format: in vitro ADME; details: pooled human hepatic microsome, 1 μmol/L terfenedine
T2 construct: enzyme, pooled human hepatic microsome 0.2 mg protein/mL; from tissue; host or cells: pooled human liver microsomes
T2 sequence (P08684 whole entry): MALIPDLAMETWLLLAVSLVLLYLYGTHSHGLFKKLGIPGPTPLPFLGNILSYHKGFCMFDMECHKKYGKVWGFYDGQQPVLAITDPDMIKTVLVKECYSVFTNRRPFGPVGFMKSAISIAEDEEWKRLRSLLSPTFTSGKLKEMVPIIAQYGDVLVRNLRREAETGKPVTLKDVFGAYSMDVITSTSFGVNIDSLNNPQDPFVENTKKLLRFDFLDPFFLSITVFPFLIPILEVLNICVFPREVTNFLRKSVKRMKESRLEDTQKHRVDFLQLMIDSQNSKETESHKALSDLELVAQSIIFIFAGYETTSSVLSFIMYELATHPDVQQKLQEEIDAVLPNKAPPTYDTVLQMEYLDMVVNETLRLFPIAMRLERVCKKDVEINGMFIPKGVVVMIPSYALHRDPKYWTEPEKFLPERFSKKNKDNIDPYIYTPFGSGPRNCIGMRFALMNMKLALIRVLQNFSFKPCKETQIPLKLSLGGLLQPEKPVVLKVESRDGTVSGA
Protocol: as §1

CYP2D6 = target: T3, CYP2D6 (Homo sapiens, UniProt P10635); assay: Test Example 6: CYP inhibition test, dextromethorphan O-demethylation (CYP2D6); format: in vitro ADME; details: pooled human hepatic microsome, 5 μmol/L dextromethorphan
T3 construct: enzyme, pooled human hepatic microsome 0.2 mg protein/mL; from tissue; host or cells: pooled human liver microsomes
T3 sequence (P10635 whole entry): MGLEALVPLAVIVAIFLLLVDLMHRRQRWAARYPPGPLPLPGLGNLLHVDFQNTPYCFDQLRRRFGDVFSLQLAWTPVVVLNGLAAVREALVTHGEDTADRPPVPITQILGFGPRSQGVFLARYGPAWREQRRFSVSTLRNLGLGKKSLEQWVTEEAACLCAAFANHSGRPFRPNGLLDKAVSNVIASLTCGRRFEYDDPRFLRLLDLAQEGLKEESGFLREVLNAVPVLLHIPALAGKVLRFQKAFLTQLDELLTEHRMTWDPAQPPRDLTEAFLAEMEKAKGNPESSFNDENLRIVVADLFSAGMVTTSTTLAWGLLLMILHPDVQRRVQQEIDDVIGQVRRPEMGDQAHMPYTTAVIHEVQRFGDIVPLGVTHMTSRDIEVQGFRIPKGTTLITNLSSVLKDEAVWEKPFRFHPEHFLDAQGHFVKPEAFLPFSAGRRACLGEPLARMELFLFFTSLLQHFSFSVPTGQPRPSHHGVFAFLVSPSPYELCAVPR
Protocol: as §1

[1] = target: T4, human TRPV4 (hTRPV4/CHO cells) (Homo sapiens, UniProt Q9HBA0); assay: Test Example 1: TRPV4 inhibitory activity (IC50 value), 4α-PDD stimulation, Fluo4 calcium fluorescence (FLIPR TETRA); format: cell-based; details: Test Example 1, 4α-PDD stimulation, read-out: Test 1 IC50
T4 construct: expressed in transfected cells; host or cells: CHO-K1
T4 sequence (Q9HBA0 whole entry): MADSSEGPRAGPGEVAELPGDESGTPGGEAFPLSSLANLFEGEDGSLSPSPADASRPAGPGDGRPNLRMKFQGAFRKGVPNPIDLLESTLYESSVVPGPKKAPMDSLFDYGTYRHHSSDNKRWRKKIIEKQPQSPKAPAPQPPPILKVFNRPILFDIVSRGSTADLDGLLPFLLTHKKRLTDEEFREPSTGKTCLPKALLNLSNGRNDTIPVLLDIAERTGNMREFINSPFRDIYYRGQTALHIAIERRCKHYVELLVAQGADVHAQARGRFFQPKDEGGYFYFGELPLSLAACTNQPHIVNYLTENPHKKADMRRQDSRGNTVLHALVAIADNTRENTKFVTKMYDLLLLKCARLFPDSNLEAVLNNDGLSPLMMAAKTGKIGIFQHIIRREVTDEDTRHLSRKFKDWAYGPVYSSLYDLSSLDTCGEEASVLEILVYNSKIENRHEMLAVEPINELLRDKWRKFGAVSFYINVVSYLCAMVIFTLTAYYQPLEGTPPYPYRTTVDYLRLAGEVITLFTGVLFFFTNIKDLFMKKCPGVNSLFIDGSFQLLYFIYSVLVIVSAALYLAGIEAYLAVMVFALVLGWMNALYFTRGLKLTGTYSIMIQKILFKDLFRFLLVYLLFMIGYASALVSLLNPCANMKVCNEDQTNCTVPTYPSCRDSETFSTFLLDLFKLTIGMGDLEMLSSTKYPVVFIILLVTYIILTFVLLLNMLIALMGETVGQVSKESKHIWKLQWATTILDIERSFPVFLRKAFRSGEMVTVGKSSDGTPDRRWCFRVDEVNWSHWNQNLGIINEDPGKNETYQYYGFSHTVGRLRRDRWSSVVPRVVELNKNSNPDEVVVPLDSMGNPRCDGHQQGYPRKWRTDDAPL

CYP2C9 = target: T5, CYP2C9 (Homo sapiens, UniProt P11712); assay: Test Example 6: CYP inhibition test, tolbutamide methyl-hydroxylation (CYP2C9); format: in vitro ADME; details: pooled human hepatic microsome, 100 μmol/L tolbutamide
T5 construct: enzyme, pooled human hepatic microsome 0.2 mg protein/mL; from tissue; host or cells: pooled human liver microsomes
T5 sequence (P11712 whole entry): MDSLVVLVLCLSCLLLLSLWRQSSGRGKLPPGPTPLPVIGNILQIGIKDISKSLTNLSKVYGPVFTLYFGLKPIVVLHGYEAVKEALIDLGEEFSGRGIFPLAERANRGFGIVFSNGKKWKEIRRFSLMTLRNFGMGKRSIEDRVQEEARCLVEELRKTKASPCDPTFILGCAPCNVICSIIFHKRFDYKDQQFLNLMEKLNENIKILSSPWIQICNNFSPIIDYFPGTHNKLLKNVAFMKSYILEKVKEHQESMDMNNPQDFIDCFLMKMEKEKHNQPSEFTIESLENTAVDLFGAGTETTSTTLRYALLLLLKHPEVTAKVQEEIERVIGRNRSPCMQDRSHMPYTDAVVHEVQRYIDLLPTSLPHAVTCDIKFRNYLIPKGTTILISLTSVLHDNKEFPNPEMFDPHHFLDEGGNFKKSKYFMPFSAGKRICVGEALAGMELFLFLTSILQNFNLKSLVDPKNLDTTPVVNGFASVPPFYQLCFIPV
Protocol: as §1

[2] = Test Example 9: Metabolism stability test; format: in vitro ADME; details: human liver microsomes 0.5 mg protein/mL, 30 minutes at 37° C., NADPH, compound concentration 0.5 μmol/L
Protocol: Metabolism Stability Test
Using a commercially available pooled human hepatic microsomes, a compound of the present invention was reacted for a constant time, a remaining rate was calculated by comparing a reacted sample and an unreacted sample, thereby, a degree of metabolism in liver was assessed.
A reaction was performed (oxidative reaction) at 37° C. for 0 minute or 30 minutes in the presence of 1 mmol/L NADPH in 0.2 mL of a buffer (50 mmol/L Tris-HCl pH 7.4, 150 mmol/L potassium chloride, 10 mmol/L magnesium chloride) containing 0.5 mg protein/mL of human liver microsomes. After the reaction, 50 μL of the reaction mixture was added to 100 μL of a methanol/acetonitrile=1/1 (v/v), mixed and centrifuged at 3000 rpm for 15 minutes. The compound of the present invention in the supernatant was quantified by LC/MS/MS, and a remaining amount of the compound of the present invention after the reaction was calculated, letting a compound amount at 0 minute reaction time to be 100%. Hydrolysis reaction was performed in the absence of NADPH and glucuronidation reaction was in the presence of 5 mmol/L UDP-glucuronic acid in place of NADPH, followed by similar operations.
(Results) Compound concentration: 0.5 μmol/L

CYP1A2 = target: T6, CYP1A2 (Homo sapiens, UniProt P05177); assay: Test Example 6: CYP inhibition test, 7-ethoxyresorufin O-deethylation (CYP1A2); format: in vitro ADME; details: pooled human hepatic microsome, 0.5 μmol/L ethoxyresorufin
T6 construct: enzyme, pooled human hepatic microsome 0.2 mg protein/mL; from tissue; host or cells: pooled human liver microsomes
T6 sequence (P05177 1-516): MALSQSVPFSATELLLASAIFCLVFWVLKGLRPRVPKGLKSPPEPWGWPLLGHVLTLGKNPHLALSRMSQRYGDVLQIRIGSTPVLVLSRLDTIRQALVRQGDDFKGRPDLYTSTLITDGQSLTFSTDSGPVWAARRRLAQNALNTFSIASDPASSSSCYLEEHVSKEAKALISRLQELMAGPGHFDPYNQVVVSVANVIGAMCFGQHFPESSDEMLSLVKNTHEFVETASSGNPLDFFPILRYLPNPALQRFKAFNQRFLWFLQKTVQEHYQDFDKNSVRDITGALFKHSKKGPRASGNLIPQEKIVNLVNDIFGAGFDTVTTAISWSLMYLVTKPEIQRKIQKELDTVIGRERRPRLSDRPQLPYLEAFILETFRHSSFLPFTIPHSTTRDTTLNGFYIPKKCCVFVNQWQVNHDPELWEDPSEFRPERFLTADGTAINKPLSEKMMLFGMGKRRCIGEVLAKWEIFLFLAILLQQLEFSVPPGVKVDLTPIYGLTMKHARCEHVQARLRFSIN
Protocol: as §1

[3] = target: T4, human TRPV4 (hTRPV4/CHO cells); assay: Test Example 4: TRPV4 inhibitory activity (Ki value), 4α-PDD stimulation, Fluo-3 calcium fluorescence (FDSS 3000); format: cell-based; details: Test Example 4, 4α-PDD stimulation, read-out: Test 4 Ki
Summary of the method: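 hTRPV4/CHO-K1 cells loaded with 5 μmol/L Fluo-3 in HBSS/HEPES pH 7.5 with probenecid; compound (10 μmol/L to 0.5 nmol/L final, 10 points) added before 4α-PDD, fluorescence read 8 min at Ex 480/Em 540 nm. Max−Min signal normalised to 10 μM Ruthenium Red (100%) and no compound (0%); IC50 converted to Ki using 4α-PDD EC50.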

[4] = Test Example 8: Solubility test; format: physicochemical; details: fassgf or other biorelevant, kinetic from dmso stock; 1% DMSO addition, artificial intestinal juice pH 6.8, 16 hours at 25° C.
Protocol: The solubility of a compound of the present invention was determined under 1% DMSO addition conditions. A 10 mmol/L solution of the compound was prepared with DMSO, and 6 μL of the solution of the compound of the present invention was added to 594 μL of an artificial intestinal juice (water and 118 mL of 0.2 mol/L NaOH reagent were added to 250 mL of 0.2 mol/L potassium dihydrogen phosphate reagent to reach 1000 mL) with a pH of 6.8. The mixture was left standing for 16 hours at 25° C., and the mixture was vacuum-filtered. The filtrate was two-fold diluted with methanol/water=1/1 (V/V), and the compound concentration in the filtrate was measured with HPLC or LC/MS/MS by the absolute calibration method.

[5] = target: T7, CYP3A4 enzyme expressed in Escherichia coli (Homo sapiens, UniProt P08684); assay: Test Example 5: CYP3A4 fluorescent MBI test; format: in vitro ADME; details: substrate 7-BFC, pre-reaction 30 minutes, compound 0.625-20 μmol/L
T7 construct: host or cells: Escherichia coli
T7 sequence (P08684 whole entry): as the sequence (P08684 whole entry) above
Protocol: CYP3A4 Fluorescent MBI Test
The CYP3A4 fluorescent MBI test is a test of investigating enhancement of CYP3A4 inhibition of a compound of the present invention by a metabolism reaction, and the test was performed using, as CYP3A4 enzyme expressed in Esherichia coli and employing, as an index, a reaction in which 7-benzyloxytrifluoromethylchmarin (7-BFC) is debenzylated by the CYP3A4 enzyme to produce a metabolite, 7-hydroxytrifluoromethylchmarin (HFC) emitting fluorescent light.
The reaction conditions were as follows: substrate, 5.6 μmol/L 7-BFC; pre-reaction time, […] or 30 minutes; reaction time, 15 minutes; reaction temperature, 25° C. […]
An enzyme in a K-Pi buffer (pH 7.4) and a solution of the compound of the present invention as a pre-reaction solution were added to a 96-well plate at the above composition of the pre-reaction. […] For the plate on which each index reaction had been performed, a fluorescent value of 7-HFC which is a metabolite was measured with a fluorescent plate reader. […]
Addition of only DMSO which is a solvent dissolving the compound of the present invention to a reaction system was adopted as a control (100%). Remaining activity (%) was calculated at each concentration of the compound of the present invention added as the solution, and IC50 was calculated by reverse-presumption by a logistic model using a concentration and an inhibition rate. […]

| IC50 (CYP2C19) [µM] | IC50 (CYP3A4) [µM] | IC50 (CYP2D6) [µM] | IC50 [1] [µM] | IC50 (CYP2C9) [µM] | Metabolism stability: remaining amount of the compound after the reaction [2] [%] | IC50 (CYP1A2) [µM] | Ki [3] [µM] | solubility at 16 h [4] [µM] | Structure (SMILES) | CYP3A4 fluorescent MBI test: difference between IC50 values without and with preincubation [5] |
| --- | --- | --- | --- | --- | --- | --- | --- | --- | --- | --- |
| > 20 | > 20 | > 20 | 0.1 to 1 | > 20 | 99.4 | > 20 | – | – | Cc1nc(CO)sc1-c1csc(NC(=O)C2CCC(F)(F)C2)n1 (stereo not drawn) [Compound I-95] | – |
| > 20 | > 20 | > 20 | 1 to 8 | > 20 | – | > 20 | – | – | Cc1nc(C)c(-c2csc(NC(=O)Cn3cc(Cl)cn3)n2)s1 [Compound I-116] | – |
| > 20 | > 20 | > 20 | – | > 20 | – | > 20 | 1 to 3 | – | Cc1nc(C)c(-c2csc(NC(=O)[C@@H]3CCC(=O)N3)n2)s1 [Compound I-42] | – |
| – | – | – | – | – | – | – | 1 to 3 | > 50 | Cc1nc(C)c(-c2csc(NS(=O)(=O)Cc3ccccc3)n2)s1 [II-1] | – |
| > 20 | > 20 | > 20 | 0.1 to 1 | > 20 | – | > 20 | – | – | Cc1nc(C(=O)NO)sc1-c1csc(NC(=O)Cc2c(F)cccc2F)n1 [Compound I-107] | (−) (when the difference is 3 μM or less, this was defined as (−)) |
| – | – | – | 1 to 8 | – | – | – | – | > 50 | Cc1nc(CN(C)C)sc1-c1csc(NC(=O)Cc2c(F)cccc2F)n1 [Compound I-81] | – |
